Laboratory results: patent US11618746B2, “Inhibitors of APOL1 and methods of using same” (Vertex Pharmaceuticals Incorporated, priority 2018, dated 2023)

Molecular target: T1, G1 APOL1 (Homo sapiens, UniProt O14791, I384M/S342G)
T1 construct: expressed in transfected cells
T1 sequence (O14791 28-398 S342G/I384M): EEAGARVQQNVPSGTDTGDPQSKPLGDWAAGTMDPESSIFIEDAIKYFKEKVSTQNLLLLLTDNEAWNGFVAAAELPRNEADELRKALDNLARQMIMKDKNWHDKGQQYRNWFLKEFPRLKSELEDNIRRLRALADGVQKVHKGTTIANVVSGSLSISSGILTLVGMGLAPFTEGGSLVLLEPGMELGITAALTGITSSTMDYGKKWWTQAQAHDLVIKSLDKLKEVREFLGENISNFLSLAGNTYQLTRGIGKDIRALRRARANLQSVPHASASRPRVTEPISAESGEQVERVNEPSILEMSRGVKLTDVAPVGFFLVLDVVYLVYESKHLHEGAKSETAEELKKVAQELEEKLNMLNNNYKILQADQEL
Assay: Acute APOL1 Thallium Assay with inducible stable clones of HEK 293 cells
Format: cell-based
Details: HEK T-Rex tetracycline-inducible cells expressing G1 APOL1 (clone G1 DC3.25); inhibition of thallium flux rate
Source text: Acute APOL1 Thallium Assay with Inducible Stable Clones of HEK 293 Cells
Apolipoprotein L1 (APOL1) proteins form potassium-permeable cation pores in the plasma membrane. APOL1 risk variants (G1 and G2) induce greater potassium flux than G0 in HEK293 cells. This assay exploits the permeability of thallium (T1+) through ligand-gated potassium channels. The dye produces a bright fluorescent signal upon binding to T1+ conducted through potassium channels. The intensity of the T1+ signal is proportional to the number of potassium channels in the open state. Therefore, it provides a functional indication of the potassium channel activities. During the initial dye-loading step, the T1+ indicator dye as an acetoxymethyl (AM) ester enters the cells through passive diffusion. Cytoplasm esterases cleave the AM ester and relieve its active thallium-sensitive form. The cells are then stimulated with T1+. The increase of fluorescence in the assay represents the influx of T1+ into the cell specifically through the potassium channel (i.e. through APOL1 pores), providing a functional measurement of potassium channel/pore activity. The Thallium assay is conducted with cells expressing G1 APOL1.
APOL1 Cell Line (HEK T-Rex Stable Inducible Cell Line) • HEK T-Rex System • Tetracycline (Tet) inducible mammalian expression system. • Stably express the Tet repressor to regulate transcription. • Expression under the full-length CMV promoter. • APOL1 stable inducible cell line Clone used: G1 DC3.25
Tissue Culture Media • Cell Culture Medium • DMEM +10% FBS +P/S +5 μg/mL blasticidin+1 μg/mL puromycin. • 500 mL DMEM +55 mL FBS +5 mL P/S +280 μL blasticidin S HCl (10 mg/mL)+56 μL puromycin (10 mg/mL). • Cell Assay Medium • DMEM with 2% FBS+pen strep.
Instruments and Equipment • Nuaire cell culture hood, Cat. No. 540-600 • 37° C./5% CO2 incubator link to robotic arm, Liconic: STX110 • Molecular Devices FLIPR^Tetra High throughput cellular screening system, Cat. No. FT0324, Molecular Devices • ThermoFisher MultiDrop 384, Cat. No. 5840300 • Biotek Microfill, Cat. No. ASF1000A-4145 • BioRad TC10 cell counter, Cat. No. 145-0010 Assay Procedures
Cells Scaled Up from Frozen Vials • APOL1 G1 3.25 (HEK293 T-Rex) frozen vials: 5 million cells per vial • Step 1, Day 1: Defrost frozen vial into T-225. • Step 2, Day 5: (when 85% confluent): Split one T-225 at 3×10^6 cells per flask. • Step 3, Day 8: Splits cells to set up for the assay plates as described below.
T-Rex APOL1 HEK cells are split twice per week to keep the confluence state below 85% of the culture flask surface area. Cells can be kept until passage 25. • Cell Culture Medium • DMEM high glucose +10% FBS, +P/S, +5 μg/mL blasticidin, +1 μg/mL puromycin. • 500 mL DMEM, +55 mL FBS, +5 mL P/S, +280 μL blasicidin 10 mg/mL, +56 μL Puromycin 10 mg/mL. • Assay Media • Opti-MEM reduced serum medium from Invitrogen.
Preparation of Cell Assay Plates • Culture medium is removed from the x cm^2 T-flask by aspiration. • The cell monolayer is rinsed with PBS 1× at room temperature. PBS is removed by aspiration. • Cells are trypsinized using Trypsin. • The flasks are incubated at room temperature for 2-3 minutes. • Complete DMEM medium is then added. Cell suspension is then transferred to a 50 mL Falcon polypropylene tube. • Cells are then counted using a Biorad TC10 cell counter and the required amount of cells are centrifuged at 1200 RPM for 5 minutes. Required amount is 1.3×10^6 cells/mL APOL1 T-Rex HEK cells. • The pellet is suspended in the assay medium. • Using the MultiDrop, add 20 μL to each well (corresponds to 26000 cells total per well) of a 384-well black, transparent, flat bottom Poly-D coated plate. • Tetracycline as prepared in the following section is added to the cells before plating to induce APOL1 expression. • Plates are left at room temperature for 20 to 30 minutes before incubation at 37° C. and 5% CO2. […]

| Compound | IC50 |
| --- | --- |
| CC1C[C@H](NC(=O)CCc2c(-c3ccc(F)cc3)[nH]c3c(F)cc(F)cc23)C(=O)N1 (mixture of isomers) [Compound 6] | 250 to 1000 nM |
| CC1(NC(=O)CCc2c(-c3ccc(F)cc3)[nH]c3c(F)cc(F)cc23)CCNC1=O (racemic) [Compound 14] | 250 to 1000 nM |
| O=C(CCc1c(-c2ccc(F)cc2)[nH]c2c(F)cc(F)cc12)N[C@H]1CCNC1=O [Compound 3, 3-[5,7-difluoro-2-(4-fluorophenyl)-1H-indol-3-yl]-N-[(3S)-2-oxopyrrolidin-3-yl]propanamide] | < 250 nM |
| O=C1C[C@H](NC(=O)CCc2c(-c3ccc(F)cc3)[nH]c3c(F)cc(F)cc23)C(=O)N1 [Compound 5] | 250 to 1000 nM |
| O=C(CCc1c(-c2ccc(F)cc2)[nH]c2c(F)cc(F)cc12)N[C@H]1C[C@@H](CO)NC1=O [Compound 7] | > 1000 nM |
| O=C(CCc1c(-c2ccc(F)cc2)[nH]c2c(F)cc(F)cc12)N[C@H]1C[C@H](CO)NC1=O [Compound 8] | > 1000 nM |
| O=C(CCc1c(-c2ccc(F)cc2)[nH]c2c(F)cc(F)cc12)N[C@@H]1CCNC1=O [Compound 13] | 250 to 1000 nM |
| O=C1C[C@@H](NC(=O)CCc2c(-c3ccc(F)cc3)[nH]c3c(F)cc(F)cc23)C(=O)N1 [Compound 16] | 250 to 1000 nM |
| N#Cc1ccc(-c2[nH]c3c(F)cc(F)cc3c2CCC(=O)N[C@H]2CCNC2=O)cc1 [Compound 20, 3-[2-(4-cyanophenyl)-5,7-difluoro-1H-indol-3-yl]-N-[(3S)-2-oxopyrrolidin-3-yl]propanamide] | < 250 nM |
| O=C(CCc1c(-c2ccc(OC(F)F)cc2)[nH]c2c(F)cc(F)cc12)N[C@H]1CCNC1=O [Compound 21] | < 250 nM |
| O=C(CCc1c(-c2ccccc2)[nH]c2c(F)cc(F)cc12)N[C@@H]1C(=O)NC[C@H]1O [Compound 26] | < 250 nM |
| O=C(CCc1c(-c2ccc(F)cc2)[nH]c2c(F)cc(Br)cc12)N[C@H]1CCNC1=O [Compound 27] | < 250 nM |
| N#Cc1cc(F)c2[nH]c(-c3ccc(F)cc3)c(CCC(=O)N[C@H]3CCNC3=O)c2c1 [Compound 28] | > 1000 nM |
| Cc1cc(F)c2[nH]c(-c3ccc(F)cc3)c(CCC(=O)N[C@@H]3C(=O)NC[C@H]3O)c2c1 [Compound 29] | < 250 nM |
| O=C(CCc1c(-c2ccc(F)cc2)[nH]c2c(F)cc(Cl)cc12)N[C@@H]1C(=O)NC[C@H]1O [Compound 30] | < 250 nM |
| O=C(CCc1c(-c2ccc(F)cc2)[nH]c2c(Cl)cc(F)cc12)N[C@@H]1C(=O)NC[C@H]1O [Compound 36] | < 250 nM |
| Cc1cc(F)cc2c(CCC(=O)N[C@@H]3C(=O)NC[C@H]3O)c(-c3ccc(F)cc3)[nH]c12 [Compound 37] | < 250 nM |
| COc1cc(F)cc2c(CCC(=O)N[C@@H]3C(=O)NC[C@H]3O)c(-c3ccc(F)cc3)[nH]c12 [Compound 40] | < 250 nM |
| N#Cc1cc(F)cc2c(CCC(=O)N[C@@H]3C(=O)NC[C@H]3O)c(-c3ccc(F)cc3)[nH]c12 [Compound 42] | < 250 nM |
| Cc1ccc2[nH]c(-c3ccc(Br)cc3)c(CCC(=O)N[C@H]3CCNC3=O)c2c1 [Compound 43, 3-[2-(4-bromophenyl)-5-methyl-1H-indol-3-yl]-N-[(3S)-2-oxopyrrolidin-3-yl]propanamide] | < 250 nM |
| O=C(CCc1c(-c2ccccc2)[nH]c2ccc(Cl)cc12)N[C@@H]1C(=O)NC[C@H]1O [Compound 44, 3-(5-chloro-2-phenyl-1H-indol-3-yl)-N-[(3S,4R)-4-hydroxy-2-oxo-pyrrolidin-3-yl]propanamide] | < 250 nM |

Other lines, results leading:

| IC50 | Compound |
| --- | --- |
| < 250 nM | O=C(CCc1c(-c2ccc(F)cc2)[nH]c2ccc(F)cc12)N[C@@H]1C(=O)NC[C@H]1O [Compound 46] |
| < 250 nM | O=C(CCc1c(-c2ccc(F)cc2)[nH]c2ccc(F)cc12)N[C@H]1CCNC1=O [Compound 47] |
| < 250 nM | O=C(CCc1c(-c2ccc(F)cc2)[nH]c2ccc(F)cc12)NC1CCNC1=O (stereo not shown) [Compound 48] |
| 250 to 1000 nM | O=C(CCc1c(-c2ccc(F)cc2)[nH]c2ccc(F)cc12)N[C@@H]1CCNC1=O [Compound 49] |
| 250 to 1000 nM | CN(C(=O)CCc1c(-c2ccc(F)cc2)[nH]c2ccc(F)cc12)C1CCNC1=O (stereo not shown) [Compound 50] |
| < 250 nM | O=C(CCc1c(-c2ccccc2)[nH]c2ccc(F)cc12)N[C@@H]1C(=O)NC[C@H]1O [Compound 51] |
| < 250 nM | O=C(CCc1c(-c2ccccc2)[nH]c2ccc(F)cc12)N[C@H]1CCNC1=O [Compound 52] |
| 250 to 1000 nM | O=C(CCc1c(-c2ccc(F)cc2)[nH]c2ccc(OCc3ccccc3)cc12)N[C@H]1CCNC1=O [Compound 54, 3-[5-benzyloxy-2-(4-fluorophenyl)-1H-indol-3-yl]-N-[(3S)-2-oxopyrrolidin-3-yl]propanamide] |
| > 1000 nM | O=C(CCc1c(-c2ccc(F)cc2)[nH]c2ccc(O)cc12)N[C@H]1CCNC1=O [Compound 55, 3-[2-(4-fluorophenyl)-5-hydroxy-1H-indol-3-yl]-N-[(3S)-2-oxopyrrolidin-3-yl]propanamide] |
| < 250 nM | O=C(CCc1c(-c2ccc(F)cc2)[nH]c2c(F)c(F)ccc12)N[C@@H]1C(=O)NC[C@H]1O [Compound 58] |
| < 250 nM | O=C(CCc1c(-c2ccccc2)[nH]c2c(F)c(F)ccc12)N[C@@H]1C(=O)NC[C@H]1O [Compound 59] |
| < 250 nM | O=C(CCc1c(-c2ccccc2)[nH]c2c(F)cccc12)N[C@@H]1C(=O)NC[C@H]1O [Compound 61] |
| < 250 nM | O=C(CCc1c(-c2ccccc2)[nH]c2c(Br)cccc12)N[C@@H]1C(=O)NC[C@H]1O [Compound 70] |
| < 250 nM | O=C(CCc1c(-c2ccc(F)cc2)[nH]c2c(Cl)cccc12)N[C@H]1CCNC1=O [Compound 72] |
| < 250 nM | O=C(CCc1c(-c2ccc(F)cc2)[nH]c2c(Cl)cccc12)N[C@@H]1C(=O)NC[C@H]1O [Compound 73] |
| < 250 nM | O=C(CCc1c(-c2ccc(F)cc2)[nH]c2c(F)cccc12)N[C@H]1CCNC1=O [Compound 75] |
| < 250 nM | O=C(CCc1c(-c2ccc(F)cc2)[nH]c2c(F)cccc12)N[C@@H]1C(=O)NC[C@H]1O [Compound 76] |
| > 1000 nM | O=C(CCc1c(-c2ccc(F)cc2)[nH]c2c(F)ccc(F)c12)N[C@H]1CCNC1=O [Compound 78] |
| < 250 nM | O=C(CCc1c(-c2ccccc2)[nH]c2c(F)c(F)c(F)cc12)N[C@@H]1C(=O)NC[C@H]1O [Compound 80] |
| < 250 nM | O=C(CCc1c(-c2ccccc2)[nH]c2cc(F)c(F)cc12)N[C@@H]1C(=O)NC[C@H]1O [Compound 82] |
| < 250 nM | O=C(CCc1c(-c2ccccc2)[nH]c2cc(F)cc(F)c12)N[C@@H]1C(=O)NC[C@H]1O [Compound 85] |
| < 250 nM | O=C(CCc1c(-c2ccccc2)[nH]c2ccccc12)N[C@@H]1C(=O)NC[C@H]1O [Compound 86] |
